Test results: ChEMBL document CHEMBL1157253, “ent-rosane and labdane diterpenoids from Sagittaria sagittifolia and their antibacterial activity against three oral pathogens” (2006)
Values after ≈ are worked out from the molar mass of the structure shown. Active and inactive are the calls of the source. No cut-off for these calls is given here.

Key:
Type in all cases: functional
[1] = tested on: Aggregatibacter actinomycetemcomitans; test: Antibacterial activity against Actinobacillus actinomycetemcommitans ATCC 43717 after 1 to 2 days under anaerobic condition by serial dilution method
Actinomyces naeslundii = test: Antibacterial activity against Actinomyces naeslundii ATCC 12104 after 1 to 2 days under anaerobic condition by serial dilution method
Streptococcus mutans = test: Antibacterial activity against Streptococcus mutans ATCC 25175 after 1 to 2 days under anaerobic condition by serial dilution method

SMILES | Activity [1] | MIC [1] | MIC (Actinomyces naeslundii) | MIC (Streptococcus mutans)
C=C[C@@]1(C)CC[C@@]2(C)[C@@H](CC=C3[C@@H]2CCC[C@]3(C)CO[C@@H]2O[C@@H](COC(C)=O)[C@H](OC(C)=O)[C@H]2O)C1 | inactive | – | – | –
C=C[C@@]1(C)CC[C@@]2(C)[C@@H](CC[C@]3(O)[C@@H]2CCC[C@]3(C)C(=O)O)C1 | inactive | – | – | –
C=C[C@@]1(C)CC[C@@]2(C)[C@@H](CC=C3[C@@H]2CCC[C@]3(C)C(=O)O)C1 [SAGITTINE A] | – | > 250 mg/L | 62.5 mg/L (≈ 207 µM) | 62.5 mg/L (≈ 207 µM)
C=C[C@@]1(C)CC[C@@]2(C)[C@@H](CC=C3[C@@H]2CCC[C@]3(C)CO[C@@H]2O[C@@H](CO)[C@H](O)[C@H]2O)C1 [SAGITTINE B] | – | 250 mg/L (≈ 594 µM) | 125 mg/L (≈ 297 µM) | 62.5 mg/L (≈ 149 µM)
C=C[C@@]1(C)CC[C@@]2(C)[C@@H](CC=C3[C@@H]2CCC[C@]3(C)CO[C@@H]2O[C@@H](COC(C)=O)[C@H](O)[C@H]2O)C1 [SAGITTINE C] | – | 250 mg/L (≈ 540 µM) | 62.5 mg/L (≈ 135 µM) | 62.5 mg/L (≈ 135 µM)
C=C[C@@]1(C)CC[C@@]2(C)[C@@H](CC=C3[C@@H]2CCC[C@]3(C)CO[C@@H]2O[C@@H](CO)[C@H](O)[C@H]2OC(C)=O)C1 [SAGITTINE D] | – | 250 mg/L (≈ 540 µM) | 125 mg/L (≈ 270 µM) | 125 mg/L (≈ 270 µM)
C=C[C@@]1(C)CC[C@@]2(C)[C@@H](CC=C3[C@@H]2CCC[C@]3(C)CO[C@@H]2O[C@@H](COC(C)=O)[C@H](O)[C@H]2OC(C)=O)C1 [SAGITTINE E] | – | > 250 mg/L | 62.5 mg/L (≈ 124 µM) | > 250 mg/L
